What all share (assay): NCI-60 cell line screen, 48 h
In assay [1] the test system is ACHN renal.
The test system of assay [2] is COLO 205 colon.
The subject of assay [3] is HT29 colon.
Assay [4] relates to K-562 leukemia.
The subject of assay [5] is NCI-H460 lung.
Assay [6] has as its system OVCAR-8 ovarian.
The subject of assay [7] is SW-620 colon.
Assay [8] has as its system T-47D breast.
Assay [9] has as its system DU-145 prostate.
Assay [10] deals with UO-31 renal.

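Test compounds were applied to cells in 96-well plates for 48 hours at 5 doses. GI50 = concentration required for 50% inhibition of growth. TGI: total growth inhibition.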

On to `C[C@@]12CC=C3c4nc(Nc5cccc(O)c5)sc4CC[C@]3(C)[C@H]1CC[C@]1(C)C(=O)CC[C@@H]21`, for which the GI50 was 2270 nM in [1]; 2170 nM in assay [2]; 1960 nM in [3]; 2530 nM in assay [4]; 2660 nM in [5]; 3.55 µM in assay [6]. Further, the results for the GI50 in assay [7] and in assay [8] were 2130 nM and 2610 nM, respectively. The TGI was 5.45 µM in [1]; 4.38 µM in assay [2]; 6.43 µM in assay [3]; over 100 µM in [4]; 7.25 µM in [5]; 26 µM in [6]. The TGI was 4.82 µM in assay [7] and 8.3 µM in [8].

Regarding `COc1ccccc1/C=C1\SC(=S)N(/C=C2\C(=O)Oc3ccccc3C2=O)C1=O`, the TGI is over 100 µM in [1]; 50.4 µM in [2]; over 100 µM in assay [9]; over 100 µM in assay [3]; over 100 µM in assay [4]; over 100 µM in [6]. Further, the TGI in [7] is over 100 µM; in assay [10], 83.2 µM.

On to `COc1cc(/C=C/c2cc(/C=C/c3ccc(O)c(OC)c3)n(C(=O)Nc3ccc(F)c(Cl)c3)n2)ccc1O`, for which the GI50 in assay [1] was 141 nM; in assay [2] it was 1760 nM; in [9] it was 419 nM; in assay [3], 1310 nM; in [4], 288 nM; in assay [6], 0.496 µM. Also, the GI50 in assay [8] was 634 nM; in [10], 248 nM. The TGI in assay [1] was determined as 7.49 µM; in assay [2], 3.25 µM; in assay [9], 1.55 µM; in assay [3], 4.26 µM; in assay [4], 1.45 µM; in assay [6] it was 3.09 µM. Further, the values for the TGI in [8] and in assay [10] were 2.32 µM and 1.82 µM, respectively.

As for `COc1cc2nc3cc([N+](=O)[O-])ccc3c(NCCCNCCO)c2cc1OC`, the GI50 was 256 nM in assay [1]; 162 nM in [2]; 194 nM in assay [9]; 212 nM in [3]; 264 nM in assay [5]; 0.202 µM in assay [6]. Further, the GI50 in [7] was 210 nM; in [8], 205 nM; in assay [10], 2150 nM. For the same molecule, the TGI amounted to 0.914 µM in assay [1]; 0.351 µM in [2]; 0.645 µM in [9]; 0.569 µM in assay [3]; 0.624 µM in assay [5]; 0.721 µM in [6]. Besides, the figures for the TGI in [7], in assay [8] and in assay [10] were 1.03 µM, 0.531 µM and 14.2 µM, respectively.

Consider `CC(C)(C)c1cc(Br)c(O)c(CN(Cc2cc(C(C)(C)C)cc(Br)c2O)C2CCCCC2)c1`, for which the TGI stood at 28.1 µM in assay [1]; 23.3 µM in assay [2]; 26.8 µM in assay [9]; 19.3 µM in [3]; 28.3 µM in assay [4]; 28.3 µM in assay [6]. The TGI in assay [7] is 25.8 µM; in assay [8], 21.4 µM; in assay [10] it was 27.4 µM.

Turning to `COc1ccc(-c2n[nH]nc2-c2cc(OC)c(OC)c(OC)c2)cc1`, the GI50 in [1] was 16.9 nM; in assay [2] it was 35.8 nM; in [3] it was under 10 nM; in assay [4], under 10 nM; in assay [5], under 10 nM; in [6], under 0.01 µM. In addition, the GI50 is under 10 nM in [7], 2660 nM in [8] and 207 nM in assay [10]. The TGI is over 100 µM in assay [1]; 0.132 µM in [2]; 0.0481 µM in assay [3]; over 100 µM in [4]; 26.3 µM in assay [5]; 22 µM in assay [6]. Further, the TGI in assay [7] is over 100 µM; in assay [8], 57.3 µM; in [10] it was 28 µM.

On to `COC1=C(C)C(=O)c2c(c(COC(N)=O)c3n2CC2C3N2C)C1=O` (stereo unspecified), for which the TGI in assay [1] is under 0.0139 µM; in [2] it was 0.119 µM; in [9], 0.0542 µM; in [3], 0.314 µM; in assay [4], 0.341 µM; in [6], 0.216 µM. Further, the figures for the TGI in assay [7], in assay [8] and in [10] were 0.145 µM, 0.201 µM and 0.232 µM, respectively.

On to `CCOc1ccccc1NC(=O)CC(C(=O)OC)C(=O)C(=O)OC` (stereo unspecified), for which the TGI in assay [1], in [2], in [3], in [4], in [5] and in [6] was over 100 µM each time. Also, the TGI in assay [7] and in assay [10] was over 100 µM in each case.

Turning to `N#CCN1C(=O)c2cccc3cc([N+](=O)[O-])cc(c23)C1=O`, the TGI in assay [1], in assay [2], in assay [3], in [4], in assay [5] and in assay [6] was over 100 µM in each case. In addition, the TGI in assay [7] and in assay [10] was over 100 µM each time.

As for `COC1(OC)C2(Cl)C(Cl)=C(Cl)C1(Cl)C1C=CC=CC12` (stereo unspecified), the TGI in assay [1], in assay [2], in assay [3], in [4], in assay [5] and in assay [6] was over 100 µM in each case. In addition, the TGI in assay [7] and in [10] was over 100 µM throughout.

For `Cc1cc(Cl)ccc1N=C1NC(=O)C(CC(=O)Nc2ccc([N+](=O)[O-])cc2[N+](=O)[O-])S1` (stereo unspecified), the TGI in [1] was 71.4 µM; in assay [2], over 100 µM; in assay [3] it was over 100 µM; in assay [4], over 100 µM; in assay [5] it was 84.9 µM; in assay [6], over 100 µM. Besides, the TGI in [7] was over 100 µM; in assay [10], 42.6 µM.

As to `O=C(N/N=C/c1ccccc1)c1c(-c2cccnc2)cnc2ccccc12`, the TGI in [1], in assay [2], in assay [9], in assay [3], in [4] and in assay [5] was over 100 µM throughout. The TGI in assay [6], in [7] and in assay [10] was over 100 µM in each case.

Take `O=C1OC(c2ccccc2)=N/C1=C\c1cccc2ccccc12`: the TGI in [1], in assay [2], in assay [3], in assay [4], in assay [5] and in [6] was over 100 µM each time. Also, the TGI in assay [7] and in assay [10] was over 100 µM in each case.

On to `CN1C(=O)c2cccc3cc([N+](=O)[O-])cc(c23)C1=O`, for which the TGI in assay [1], in assay [2], in [9], in assay [3], in assay [4] and in [6] was over 10 µM throughout. The TGI in [7] and in assay [8] was over 10 µM throughout.

Consider `CC(=O)[O-].CCN(CC)c1ccc(C=NCCN=Cc2ccc(N(CC)CC)cc2[O-])c([O-])c1.[Mn+3]`, for which the GI50 in assay [1] was over 100000 nM; in assay [2] it was 18600 nM; in assay [3], 19900 nM; in assay [4], 22900 nM; in [5] it was 21300 nM; in [6] it was 24.5 µM. For the same molecule, the GI50 in assay [7] was 27400 nM; in assay [10], over 100000 nM. The TGI in [1] is over 100 µM; in assay [2] it was 32.8 µM; in [3] it was 40.1 µM; in assay [4] it was 61.3 µM; in assay [5], 43.5 µM; in assay [6], 57 µM. The TGI in assay [7] was 66.4 µM; in assay [10], over 100 µM.

As to `NC(N)=N/N=C(\c1nc2ccc([N+](=O)[O-])cc2[nH]c1=O)C(O)c1ccc([N+](=O)[O-])cc1` (stereo unspecified), the TGI in assay [1], in assay [2], in assay [3], in assay [4], in assay [5] and in assay [6] was over 100 µM throughout. For the same molecule, the TGI in assay [7] and in assay [10] was over 100 µM throughout.

`Cc1cccc(NC(=O)C(=O)C(C(=O)c2ccc3ccccc3c2)C2OC(=O)c3ccccc32)c1C` (stereo unspecified): the TGI in assay [1] was 81.4 µM; in assay [2] it was 24.7 µM; in assay [3], 64.4 µM; in assay [4], over 100 µM; in assay [5] it was 87.8 µM; in [6] it was 71.8 µM. In addition, the TGI in assay [7] came to 24.2 µM; in assay [10], 35.7 µM.

Turning to `Clc1ccc(C2=Nn3c(COc4ccccc4Cl)nnc3SC2)c(Cl)c1`, the GI50 in assay [1] is 17300 nM; in assay [2] it was 14700 nM; in assay [9], 19800 nM; in assay [3], 14000 nM; in assay [5] it was 24200 nM; in assay [6], 29.6 µM. In addition, the GI50 was 18500 nM in [7], 14000 nM in assay [8] and 31200 nM in [10]. Besides, the TGI in assay [1] was 51.6 µM; in assay [2], 33.5 µM; in assay [9], 86.1 µM; in assay [3], 27 µM; in assay [5], over 100 µM; in [6], over 100 µM. Further, the TGI was over 100 µM in [7], 51.5 µM in assay [8] and over 100 µM in assay [10].

Values taken from PubChem BioAssay (NCI).
